Experimental data reported in patent US20040092524A1, “Novel aminophenyl piperazine or aminophenyl piperidine derivatives inhibiting prenyl transferase proteins and method for preparing same” (priority 2000, published 2004).

biological target: T1, protein farnesyl transferase (Bos taurus, UniProt P29702+P49355); assay: Inhibition of protein farnesyl transferase (dansyl-GCVLS fluorescence); format: biochemical; conditions: enzyme partially purified from bovine brain; 2 μM FPP, 2 μM dansyl GCVLS, 10 minutes at 37° C.; read-out: IC50 (PFTase)
T1 construct: partially purified from bovine brain by ion-exchange chromatography; from tissue; host or cells: bovine brain
Description: A) Evaluation of the Inhibition of Protein Famesyl Transferase:
The famesylation of the dansylated peptide GCVLS, catalyzed with the enzyme protein famesyl transferase results in a change in the emission spectrum of the dansyl group, and especially an increase in the emission at 505 nm when the molecule is excited at 340 nm. When measured using the spectrofluorimeter, this emission is proportional to the activity of the enzyme (Pompliano et al., J. Am. Chem. Soc. 1992; 114: 7945-7946).
55 mM TRIS/HCl pH 7.5; 5.5 mM DTT; 5.5 mM MgCl2; 110 μM ZnCl2, 0.22% B-octyl-B D-glucopyrannoside.
Farnesyl pyrophosphate (FPP), (Sigma)
Dansylated peptide dansyl-GCVLS (Neosystem/Strasbourg, France)
The protein farnesyl transferase is partially purified from bovine brain by ion-exchange chromatography on Q-sepharose (Pharmacia) (Moores et al., J. Biol. Chem. 1991, 266: 14603-14610, Reiss et al., Cell 1990, 62: 81-88).
The reaction mixture containing 2 μM of FPP, 2 μM of dansyl GCVLS with or without (zero) the amount of enzyme giving an intensity of 100 on the spectrofluorimeter after incubation for 10 minutes at 37° C., is prepared on ice.
In an Eppendorf tube, 360 μL of reaction mixture are mixed with 40 μl of 10× concentrated test product or of solvent, and incubated for 10 minutes at 37° C. The reaction is quenched on ice and the fluorescence intensity is measured (excitation at 340 nm, 4 nm slit, emission at 505 nm, 10 nm slit). The tests are performed in duplicate. The results are expressed as a percentage of inhibition. Under these conditions, the derivatives of the present invention were identified as powerful inhibitors of protein farnesyl transferase (IC50<10 μM).
Adaptation of the method to a 96-well format:
The procedure is similar to that above, except that the measurements are performed in a “Black Fluorotrack 200” 96-well device (Greiner, Poitiers, France) and the readings are performed using a “Spectrametrix Gemini” 96-well fluorimeter (Molecular Devices, Sunnyvale, Calif., USA)

| IC50 | SMILES |
| --- | --- |
| 6 nM | CC(C)CNC(=S)N1CCN(c2ccc(N(Cc3cnc[nH]3)S(=O)(=O)c3ccccc3)cc2)CC1 [Example 45, 4-{4-[Benzenesulfonyl-(3H-imidazol-4-ylmethyl)amino]phenyl}-1-piperazinecarbothioic acid isobutylamide] |
| 2 nM | N#Cc1ccc(Cn2cncc2CN(C(=O)c2ccccc2Cl)c2ccc(N3CCN(C(=O)c4ccc(Cl)s4)CC3)cc2)cc1 [Example 110, 2-Chloro-N-{4-[4-(5-chloro-2-thiophenecarbonyl)-1-piperazinyl]phenylk}-N-[3-(4-cyanobenzyl)-3H-imidazol-4-ylmethyl]benzamide] |
| 2 nM | N#Cc1ccc(Cn2cncc2CN(C(=O)c2ccc(C#N)cc2)c2ccc(N3CCN(C(=O)c4ccc(Cl)s4)CC3)cc2)cc1 [Example 123, N-{4-[4-(5-Chloro-2-thiophenecarbonyl)-1-piperazinyl]phenyl}-4-cyano-N-[3-(4-cyanobenzyl)-3H-imidazol-4-ylmethyl]-benzamide] |
| 2 nM | N#Cc1ccc(Cn2cncc2CN(C(=O)C2CCCCC2)c2ccc(N3CCN(C(=O)c4ccc(Cl)s4)CC3)cc2)cc1 [Example 124, Cyclohexanecarboxylic acid {4-[4-(5-chloro-2-thiophenecarbonyl)-1-piperazinyl]phenyl}-[3-(4-cyanobenzyl)-3H-imidazol-4-ylmethyl]amide] |
| 2 nM | N#Cc1ccc(Cn2cncc2CN(C(=O)c2ccccc2F)c2ccc(N3CCN(C(=O)c4ccc(Cl)s4)CC3)cc2)cc1 [Example 113, N-{4-[4-(5-Chloro-2-thiophenecarbonyl)-1-piperazinyl]phenyl}-N-[3-(4-cyanobenzyl)-3H-imidazol-4-ylmethyl]-2-fluorobenzamide] |
| 1 nM | N#Cc1ccc(Cn2cncc2CN(C(=O)c2cccs2)c2ccc(N3CCN(C(=O)c4ccc(Cl)s4)CC3)cc2)cc1 [Example 109, Thiophene-2-carboxylic acid {4-[4-(5-chloro-2-thiophenecarbonyl)-1-piperazinyl]phenyl}[3-(4-cyanobenzyl)-3H-imidazol-4-ylmethyl]amide] |
| 2 nM | N#Cc1ccc(Cn2cncc2CN(C(=O)c2cccc(F)c2)c2ccc(N3CCN(C(=O)c4ccc(Cl)s4)CC3)cc2)cc1 [Example 114, N-{4-[4-(5-Chloro-2-thiophenecarbonyl)-1-piperazinyl]phenyl}-N-[3-(4-cyanobenzyl)-3H-imidazol-4-ylmethyl]-3-fluorobenzamide] |
| 9 nM | CC(C)CNC(=S)N1CCC(c2ccc(N(Cc3cnc[nH]3)S(=O)(=O)c3ccccc3)cc2)CC1 [Example 141, 4-{4-[Benzenesulfonyl-(3H-imidazol-4-ylmethyl)amino]phenyl}piperidine-1-carbothioic acid isobutylamide] |
| 7 nM | CCCNC(=O)N(Cc1cnc[nH]1)c1ccc(N2CCN(C(=O)c3ccc(Cl)s3)CC2)cc1 [Example 82, 1-{4-[4-(5-Chloro-2-thiophenecarbonyl)-1-piperazinyl]phenyl}-1-(3H-imidazol-4-ylmethyl)-3-propyl-urea] |
| 0.9 nM | N#Cc1ccc(Cn2cncc2CN(c2ccc(N3CCN(C(=O)c4ccc(Cl)s4)CC3)cc2)S(=O)(=O)c2ccccc2C#N)cc1 [Example 126, N-{4-[4-(5-Chloro-2-thiophenecarbonyl)-1-piperazinyl]phenyl}-2-cyano-N-[3-(4-cyanobenzyl)-3H-imidazol-4-ylmethyl]benzenesulfonamide] |
| 2 nM | N#Cc1ccc(Cn2cncc2CN(C(=O)c2ccccc2)c2ccc(N3CCN(C(=O)c4ccc(Cl)s4)CC3)cc2)cc1 [Example 108, N-{4-[4-(5-Chloro-2-thiophenecarbonyl)-1-piperazinyl]phenyl}N-[3-(4-cyanobenzyl)-3H-imidazol-4-ylmethyl]benzamide] |

biological target: T2, GGPT I (Bos taurus, UniProt P29702+Q5EAD5); assay: Inhibition of geranylgeranyl transferase protein I (3H-GGPP, RhoA-GST filter assay); format: biochemical; conditions: enzyme partially purified from bovine brain; 0.2 μM 3H-GGPP, 1 μM RhoA-GST, 45 minutes at 37° C.; read-out: IC50 (PGGTase)
T2 construct: GGPT I is partially purified from bovine brain by ion-exchange chromatography; from tissue; host or cells: bovine brain
Description: B) Evaluation of the Inhibition of Geranyl Geraryl Transferase Protein I:
55 mM TRIS/HCl pH 7.5; 5.5 mM DTT; 5.5 mM MgCl2; 110 μM ZnCl2, 0.22% N-octyl-B D-glucopyrannoside.
^3H-geranylgeranyl pyrophosphate (GGPP), 66 μM, 15 CI/mmol, (Isotopchim) Rho-GST recombinant protein
GGPT I is partially purified from bovine brain by ion-exchange chromatography on Q-sepharose (Pharmacia); elution at 0.23 and 0.4 M NaCl, respectively.
The reaction mixture containing 0.2 μM of ^3H-GGPP, 1 μM of RhoA-GST with or without (zero) 5 μl of GGPT/test, is prepared on ice.
In an Eppendorf tube, 45 μl of reaction mixture are mixed with 5 μl of 10× concentrated test product or of solvent, and incubated for 45 minutes at 37° C. A 45 μl aliquot is placed on a phosphocellulose P81 filter (Whatman, Maidstone, UK) numbered, washed with 50% ethanol, phosphoric acid (0.5%) and counted by scintillation.
The tests are performed in duplicate. The results are expressed as a percentage of inhibition.
Adaptation of the Method to a 96-well Format: […]
The tests are performed in triplicate. The results are expressed as a percentage of inhibition.

| IC50 | SMILES |
| --- | --- |
| 700 nM | N#Cc1ccc(Cn2cncc2CN(C(=O)c2cccs2)c2ccc(N3CCN(C(=O)c4ccc(Cl)s4)CC3)cc2)cc1 [Example 109, Thiophene-2-carboxylic acid {4-[4-(5-chloro-2-thiophenecarbonyl)-1-piperazinyl]phenyl}[3-(4-cyanobenzyl)-3H-imidazol-4-ylmethyl]amide] |
